This note sets out measurements from patent US7820623B2 (priority 2006, dated 2010).

For assay [1], the system named is thapsigargin-induced IFN-g production in human whole blood. The class given is cell-based.
For assay [2], the system named is thapsigargin-induced IL-2 production in human whole blood.
[3] abbreviates: read-out: Analogue Activity (IC50) WB/IFNg.
[4] abbreviates: read-out: Analogue Activity (IC50) WB/IL-2.

Read-outs that look alike come from different tables or passages of the source. Bridge positions count the residues as written; N and C are the ends. Square brackets hold non-standard residues; d marks the D form. Ends that are not written are not given here. Peptide text beside a SMILES is read from it. 1Nal = N[C@@H](Cc1cccc2ccccc12)C(=O)O

`CC[C@H](C)[C@@H]1NC(=O)[C@H](CCCCN)NC(=O)[C@@H](NC(=O)[C@H](CCCNC(=N)N)NC(=O)[C@@H](NC(=O)[C@H](CC(N)=O)NC(=O)[C@@H](NC(=O)[C@@H](NC(=O)[C@@H](NC(=O)CN)C(C)C)[C@@H](C)CC)[C@@H](C)CC)C(C)C)CSSC[C@@H]2NC(=O)[C@H](CCCCN)NC(=O)CNC(=O)[C@H](Cc3ccccc3)NC(=O)[C@H](CCCNC(=N)N)NC(=O)[C@H](CCSC)NC(=O)CNC(=O)[C@H](C)NC(=O)[C@H](CCCCN)NC(=O)[C@H](CCCCN)NC(=O)[C@@H]3CSSC[C@@H](C(=O)N[C@H](C(=O)N4CCC[C@H]4C(=O)N[C@@H](CCCCN)C(=O)O)[C@@H](C)O)NC(=O)[C@H](Cc4c[nH]cn4)NC(=O)[C@H](CSSC[C@H](NC(=O)[C@H](CCC(N)=O)NC(=O)[C@H](CCCNC(=N)N)NC(=O)[C@H](CO)NC1=O)C(=O)N[C@@H](CC(C)C)C(=O)N[C@@H](CCC(=O)O)C(=O)N1CCC[C@H]1C(=O)N3)NC(=O)[C@H](CCCCN)NC(=O)CNC(=O)[C@H](CC(N)=O)NC(=O)[C@H](CCSC)NC2=O` [K7R] (H-GVIINVRCKISRQCLEPCKKAGMRFGKCMNGKCHCTPK-OH; disulfide 8-28, 14-33, 18-35): the IC50 in assay [1] (setting [3]) came out at 71 pM; in assay [2] (setting [4]), 78 pM. As for `CC[C@H](C)[C@@H]1NC(=O)[C@H](CCCCN)NC(=O)[C@@H](NC(=O)[C@H](CCCCN)NC(=O)[C@@H](NC(=O)[C@H](C)NC(=O)[C@@H](NC(=O)[C@@H](NC(=O)[C@@H](NC(=O)CN)C(C)C)[C@@H](C)CC)[C@@H](C)CC)C(C)C)CSSC[C@@H]2NC(=O)[C@H](CCCCN)NC(=O)CNC(=O)[C@H](Cc3ccccc3)NC(=O)[C@H](CCCNC(=N)N)NC(=O)[C@H](CCSC)NC(=O)CNC(=O)[C@H](C)NC(=O)[C@H](CCCCN)NC(=O)[C@H](CCCCN)NC(=O)[C@@H]3CSSC[C@@H](C(=O)N[C@H](C(=O)N4CCC[C@H]4C(=O)N[C@@H](CCCCN)C(=O)O)[C@@H](C)O)NC(=O)[C@H](Cc4c[nH]cn4)NC(=O)[C@H](CSSC[C@H](NC(=O)[C@H](CCC(N)=O)NC(=O)[C@H](CCCNC(=N)N)NC(=O)[C@H](CO)NC1=O)C(=O)N[C@@H](CC(C)C)C(=O)N[C@@H](CCC(=O)O)C(=O)N1CCC[C@H]1C(=O)N3)NC(=O)[C@H](CCCCN)NC(=O)CNC(=O)[C@H](CC(N)=O)NC(=O)[C@H](CCSC)NC2=O` [N5A] (H-GVIIAVKCKISRQCLEPCKKAGMRFGKCMNGKCHCTPK-OH; disulfide 8-28, 14-33, 18-35), the IC50 was 67 pM in assay [1] (setting [3]) and 67.9 pM in assay [2] (setting [4]). Take “E16K, K20D (GVIINVKCKISRQCLKPCKDAGMRFGKCMNGKCHCTPK; Definition of Artificial Sequence: Synthetic peptide)”: the IC50 amounted to 1320 pM in assay [1] (read-out: WB/IFNg (IC50)) and 1580 pM in assay [2] (read-out: WB/IL-2 (IC50)). For `CC[C@H](C)[C@@H]1NC(=O)[C@H](CCCCN)NC(=O)[C@@H](NC(=O)[C@H](C)NC(=O)[C@@H](NC(=O)[C@H](CC(N)=O)NC(=O)[C@@H](NC(=O)[C@@H](NC(=O)[C@@H](NC(=O)CN)C(C)C)[C@@H](C)CC)[C@@H](C)CC)C(C)C)CSSC[C@@H]2NC(=O)[C@H](CCCCN)NC(=O)CNC(=O)[C@H](Cc3ccccc3)NC(=O)[C@H](CCCNC(=N)N)NC(=O)[C@H](CCSC)NC(=O)CNC(=O)[C@H](C)NC(=O)[C@H](CCCCN)NC(=O)[C@H](CCCCN)NC(=O)[C@@H]3CSSC[C@@H](C(=O)N[C@H](C(=O)N4CCC[C@H]4C(=O)N[C@@H](CCCCN)C(=O)O)[C@@H](C)O)NC(=O)[C@H](Cc4c[nH]cn4)NC(=O)[C@H](CSSC[C@H](NC(=O)[C@H](CCC(N)=O)NC(=O)[C@H](CCCNC(=N)N)NC(=O)[C@H](CO)NC1=O)C(=O)N[C@@H](CC(C)C)C(=O)N[C@@H](CCC(=O)O)C(=O)N1CCC[C@H]1C(=O)N3)NC(=O)[C@H](CCCCN)NC(=O)CNC(=O)[C@H](CC(N)=O)NC(=O)[C@H](CCSC)NC2=O` [K7A] (H-GVIINVACKISRQCLEPCKKAGMRFGKCMNGKCHCTPK-OH; disulfide 8-28, 14-33, 18-35), the IC50 in assay [1] (setting [3]) amounted to 59.1 pM; in assay [2] (setting [4]), 67.5 pM. Take `CC[C@H](C)[C@@H]1NC(=O)[C@H](CCCCN)NC(=O)[C@@H](NC(=O)[C@H](CCCCN)NC(=O)[C@H](C)NC(=O)[C@H](CC(N)=O)NC(=O)[C@@H](NC(=O)[C@@H](NC(=O)[C@@H](NC(=O)CN)C(C)C)[C@@H](C)CC)[C@@H](C)CC)CSSC[C@@H]2NC(=O)[C@H](CCCCN)NC(=O)CNC(=O)[C@H](Cc3ccccc3)NC(=O)[C@H](CCCNC(=N)N)NC(=O)[C@H](CCSC)NC(=O)CNC(=O)[C@H](C)NC(=O)[C@H](CCCCN)NC(=O)[C@H](CCCCN)NC(=O)[C@@H]3CSSC[C@@H](C(=O)N[C@H](C(=O)N4CCC[C@H]4C(=O)N[C@@H](CCCCN)C(=O)O)[C@@H](C)O)NC(=O)[C@H](Cc4c[nH]cn4)NC(=O)[C@H](CSSC[C@H](NC(=O)[C@H](CCC(N)=O)NC(=O)[C@H](CCCNC(=N)N)NC(=O)[C@H](CO)NC1=O)C(=O)N[C@@H](CC(C)C)C(=O)N[C@@H](CCC(=O)O)C(=O)N1CCC[C@H]1C(=O)N3)NC(=O)[C@H](CCCCN)NC(=O)CNC(=O)[C@H](CC(N)=O)NC(=O)[C@H](CCSC)NC2=O` [V6A] (H-GVIINAKCKISRQCLEPCKKAGMRFGKCMNGKCHCTPK-OH; disulfide 8-28, 14-33, 18-35): the IC50 in assay [1] (setting [3]) amounted to 80.5 pM; in assay [2] (setting [4]), 73.3 pM. The like results for `CC[C@H](C)[C@@H]1NC(=O)[C@H](CCCCN)NC(=O)[C@@H](NC(=O)[C@H](CCCCN)NC(=O)[C@@H](NC(=O)[C@H](CC(N)=O)NC(=O)[C@@H](NC(=O)[C@@H](NC(=O)[C@@H](NC(=O)CN)C(C)C)[C@@H](C)CC)[C@@H](C)CC)C(C)C)CSSC[C@@H]2NC(=O)[C@H](CCCCN)NC(=O)CNC(=O)[C@H](CCCNC(=N)N)NC(=O)[C@H](CCCNC(=N)N)NC(=O)[C@H](CCSC)NC(=O)CNC(=O)[C@H](C)NC(=O)[C@H](CCCCN)NC(=O)[C@H](CCCCN)NC(=O)[C@@H]3CSSC[C@@H](C(=O)N[C@H](C(=O)N4CCC[C@H]4C(=O)N[C@@H](CCCCN)C(=O)O)[C@@H](C)O)NC(=O)[C@H](Cc4c[nH]cn4)NC(=O)[C@H](CSSC[C@H](NC(=O)[C@H](CCC(N)=O)NC(=O)[C@H](CCCNC(=N)N)NC(=O)[C@H](CO)NC1=O)C(=O)N[C@@H](CC(C)C)C(=O)N[C@@H](CCC(=O)O)C(=O)N1CCC[C@H]1C(=O)N3)NC(=O)[C@H](CCCCN)NC(=O)CNC(=O)[C@H](CC(N)=O)NC(=O)[C@H](CCSC)NC2=O` [F25R] (H-GVIINVKCKISRQCLEPCKKAGMRRGKCMNGKCHCTPK-OH; disulfide 8-28, 14-33, 18-35) were, in that order, 31000 pM and 25000 pM. `CC[C@H](C)[C@@H]1NC(=O)[C@H](CCCCN)NC(=O)[C@@H](NC(=O)[C@H](CCCCN)NC(=O)[C@@H](NC(=O)[C@H](CC(N)=O)NC(=O)[C@@H](NC(=O)[C@@H](NC(=O)[C@@H](NC(=O)CN)C(C)C)[C@@H](C)CC)[C@@H](C)CC)C(C)C)CSSC[C@@H]2NC(=O)[C@H](CCCCN)NC(=O)CNC(=O)[C@H](Cc3ccccc3)NC(=O)[C@H](CCCNC(=N)N)NC(=O)[C@H](CCSC)NC(=O)CNC(=O)[C@H](C)NC(=O)[C@H](CCCCN)NC(=O)[C@H](CCCCN)NC(=O)[C@@H]3CSSC[C@@H](C(=O)N[C@H](C(=O)N4CCC[C@H]4C(=O)N[C@@H](CCCCN)C(=O)O)[C@@H](C)O)NC(=O)[C@H](Cc4c[nH]cn4)NC(=O)[C@H](CSSC[C@H](NC(=O)[C@H](Cc4cccc5ccccc45)NC(=O)[C@H](CCCNC(=N)N)NC(=O)[C@H](CO)NC1=O)C(=O)N[C@@H](CC(C)C)C(=O)N[C@@H](CCC(=O)O)C(=O)N1CCC[C@H]1C(=O)N3)NC(=O)[C@H](CCCCN)NC(=O)CNC(=O)[C@H](CC(N)=O)NC(=O)[C@H](CCSC)NC2=O` [Q13Nal] (H-GVIINVKCKISR[1Nal]CLEPCKKAGMRFGKCMNGKCHCTPK-OH; disulfide 8-28, 14-33, 18-35): in assay [2] (setting [4]), the IC50 was 140 pM. As for “SEQ ID No: 4989: OSK1 analog without beta strand 1 (labeled des 1-7), Table 42 (CKISRQCLKPCKDAGMRFGKCMNGKCHC-NH2; ends and bridges not checked)”, the “blockade of the whole blood cytokine response, IL-2 and IFNg” value (“blockade” below) in assay [2] is given as “retain activity in blocking inflammation”.

B1: FcLoop-L2-ShK-L2: ShK inserted into the human IgG1 Fc-loop domain with 2-Gly linkers (protein)
chain: MDKTHTCPPCPAPELLGGPSVFLFPPKPKDTLMISRTPEVTCVVVDVSHEDPEVKFNWYVDGVEVHNAKTKPREEQYNSTYRVVSVLTVLHQDWLNGKEYKCKVSNKALPAPIEKTISKAKGQPREPQVYTLPPSRDELGGRSCIDTIPKSRCTAFQCKHSMKYRLSFCRKTCGTCGGTKNQVSLTCLVKGFYPSDIAVEWESNGQPENNYKTTPPVLDSDGSFFLYSKLTVDKSRWQQGNVFSCSVMHEALHNHYTQKSLSLSPGK
modifications: Definition of Artificial Sequence: Synthetic protein
Take B1: the “blockade” value in assay [2] is on record as “potent blockade”.

B2: FcLoop-L2-OsK1-L2: OsK1 inserted into the human IgG1 Fc-loop domain with 2-Gly linkers on either side (protein)
chain: MDKTHTCPPCPAPELLGGPSVFLFPPKPKDTLMISRTPEVTCVVVDVSHEDPEVKFNWYVDGVEVHNAKTKPREEQYNSTYRVVSVLTVLHQDWLNGKEYKCKVSNKALPAPIEKTISKAKGQPREPQVYTLPPSRDELGGGVIINVKCKISRQCLEPCKKAGMRFGKCMNGKCHCTPKGGTKNQVSLTCLVKGFYPSDIAVEWESNGQPENNYKTTPPVLDSDGSFFLYSKLTVDKSRWQQGNVFSCSVMHEALHNHYTQKSLSLSPGK
modifications: Definition of Artificial Sequence: Synthetic protein
Turning to B2, the “blockade” value in assay [2] is listed as “potent blockade”.
